Columns and labels:
Format in all cases: in vivo
C57/BL/6 mice [1] = test: Glucose tolerance test with normal mice, PALP and CCcompound1 combined
Procedure: Female C57/BL/6 mice weighing 24-26-g and fasted for 12 hours before i.p. glucose administration (3 g/kg) were used. None of the animals received any food during the experiment other than glucose. One group of animals was untreated while animals in other groups received subcutaneous (s.c.) injections of 2.0 or 4.5-mg/kg of CCcompound1 either 30 min or 60 min prior to glucose administration as indicated in TABLE 5. Two groups of animals received i.p. injections of 0.4-mg per mouse (˜16-mg per kg) of highly purified PALP 24 hours prior to glucose administration. Purification of PALP was described in detail earlier [Z. Kiss, U.S. Pat. No. 7,048,914, “Placental Alkaline Phosphatase to Control Diabetes]. Animals in one of the PALP treated group also received s.c. injections of 4.5-mg/kg of CCcompound1 30 min prior to glucose administration as indicated in TABLE 5. Blood samples were taken and glucose concentrations were immediately measured as described earlier. Each group included five animals. The data are the mean±std. dev. of 5 determinations, i.e. one determination with each of the five animals. “-min” and “-h” indicates the length of period in minutes and hours, respectively, elapsed between the administration of test agents (first) and glucose (second).

[2] = test system: BDF1 (C57/BL/6 female×DBA/2 male) mice; test: Glucose tolerance test with BDF1 mice, CCcompound1 and sub-optimal insulin; settings: CCcompound1 4.5-mg/kg i.p. −15 min and/or insulin 0.02 IU −10 min
Procedure: In this experiment again, a sub-optimal dose of insulin was used to probe if CCcompound1 can enhance the effect of insulin on blood glucose. This time first generation hybrid BDF1 (C57/BL/6 female×DBA/2 male) adult (10-12 weeks old) male mice weighing 28-30-g and fasted for 14 hours before i.p. glucose administration (3-g/kg) were used. These mice were […] than mice in the previous experiment described under Example 5. None of the animals received any food during the experiment other than glucose. The animals received i.p. injections of 4.5-mg/kg of CCcompound1 and 0.02 IU of insulin 15 min and 10 min prior to glucose administration. Blood samples were taken and glucose concentrations in whole blood samples determined as described earlier. Each group included six animals. The data are the mean±std. dev. of 6 determinations, i.e. one determination with each of the six animals.

ob/ob mice = test: Glucose tolerance test with ob/ob mice
Procedure: In this experiment, 43 days old ob/ob mice weighing 40.3±1.8-g on average were used. One group of mice (5 animals) remained untreated for the subsequent 14 days. Two other groups of mice (each including 5 animals) were treated on each day for 13 days with 4.5-mg/kg dose of CCcompound1. On the 14th day the first group received only i.p. injection of glucose (3-g/kg) (first column in TABLE 13); the second group first received s.c. injection of CCcompound1, followed six hours later by i.p. injection of glucose (3-g/kg) (second column in TABLE 13); the third group first received s.c. injection of CCcompound1, followed 45 min later by i.p. injection of glucose (3-g/kg) (third column in TABLE 13). In each case, blood was first drawn 1-5 min prior to the administration of glucose, followed by drawing blood samples at 30 min, 60 min, 120 min and 180 min. The results shown in TABLE 13 indicate that CCcompound1 can effectively lower blood glucose level even after administration of a large amount of glucose. […] This probably means that the effect of CCcompound1 on blood glucose level requires its physical presence in the circulation and is not mediated by a secondary mechanism.

C57/BL/6 mice [3] = test: Glucose tolerance test with normal mice (CC1, CC3, CC19)
Procedure: C57/BL/6 female mice weighing 22-23-g and fasted for 14 hours before intraperitoneal (i.p.) administration of glucose (3-g/kg) were used. None of the animals received any food during the experiment other than glucose. The animals received i.p. injections of 4.5-mg/kg of CCcompound1, CCcompound3, or CCcompound19 either 1 hour or 24 hours prior to glucose administration as indicated in TABLE 3. Blood samples were taken from the eyes (canthus), and glucose concentrations in whole blood samples were immediately measured with the Fast Glucose C test. Each group included six animals. The data, shown in TABLE 3, are the mean±std. dev. of 6 determinations, i.e. one determination with each of the six animals. In this and all subsequent experiments the values at 0 min reflect glucose concentration in blood samples collected 1-5 minutes prior to the administration of glucose.

Wistar rats = test: Glucose tolerance test in starved rats
Procedure: Male Wistar rats weighing 240-270-g were divided into 3 groups, each group consisting of 6 or 7 animals. To ensure standard conditions animals were starved for 14 hours before the start of the experiment. CCcompound1 and CCcompound3 were injected (i.p.) 30 min prior to injecting 3-g/kg of glucose (i.p.). Blood sugar values of the experimental animals were measured with the Fast Glucose C-test; blood samples were taken from the tail. The data are the mean±std. dev. of 6-7 determinations, i.e. one determination with each of the 6-7 animals in the respective groups.

Cc1c(OCC(O)C[N+](C)(C)C)cc2c(=O)c3ccccc3sc2c1C.[Cl-] (stereo not shown) [CCcompound 1, [3-(3,4-Dimethyl-9-oxo-9H-thioxanthen-2-yloxy)-2-hydroxypropyl]trimethyl-ammonium chloride]
Blood glucose (C57/BL/6 mice [1]; CC1 2 mg/kg s.c. −30 min, 0 min): 3.7 ± 0.4 mM
Blood glucose (C57/BL/6 mice [1]; CC1 2 mg/kg s.c. −30 min, 30 min): 6.6 ± 0.4 mM
Blood glucose (C57/BL/6 mice [1]; CC1 2 mg/kg s.c. −30 min, 60 min): 4.9 ± 0.6 mM
Blood glucose (C57/BL/6 mice [1]; CC1 2 mg/kg s.c. −30 min, 120 min): 4.4 ± 0.5 mM
Blood glucose (C57/BL/6 mice [1]; CC1 2 mg/kg s.c. −60 min, 0 min): 3.9 ± 0.6 mM
Blood glucose (C57/BL/6 mice [1]; CC1 2 mg/kg s.c. −60 min, 30 min): 6.7 ± 0.5 mM
Blood glucose (C57/BL/6 mice [1]; CC1 2 mg/kg s.c. −60 min, 60 min): 5.2 ± 0.3 mM
Blood glucose (C57/BL/6 mice [1]; CC1 2 mg/kg s.c. −60 min, 120 min): 4.6 ± 0.3 mM
Blood glucose (C57/BL/6 mice [1]; CC1 4.5 mg/kg s.c. −30 min, 0 min): 3.6 ± 0.4 mM
Blood glucose (C57/BL/6 mice [1]; CC1 4.5 mg/kg s.c. −30 min, 30 min): 6.2 ± 0.4 mM
Blood glucose (C57/BL/6 mice [1]; CC1 4.5 mg/kg s.c. −30 min, 60 min): 4.5 ± 0.3 mM
Blood glucose (C57/BL/6 mice [1]; CC1 4.5 mg/kg s.c. −30 min, 120 min): 4.2 ± 0.4 mM
Blood glucose (C57/BL/6 mice [1]; CC1 4.5 mg/kg s.c. −60 min, 0 min): 3.8 ± 0.5 mM
Blood glucose (C57/BL/6 mice [1]; CC1 4.5 mg/kg s.c. −60 min, 30 min): 6.4 ± 0.3 mM
Blood glucose (C57/BL/6 mice [1]; CC1 4.5 mg/kg s.c. −60 min, 60 min): 4.5 ± 0.5 mM
Blood glucose (C57/BL/6 mice [1]; CC1 4.5 mg/kg s.c. −60 min, 120 min): 4.1 ± 0.6 mM
Blood glucose ([2]; 0 min): 3.1 ± 0.2 mM
Blood glucose ([2]; 30 min): 4.8 ± 0.3 mM
Blood glucose ([2]; 60 min): 3.5 ± 0.2 mM
Blood glucose (ob/ob mice; 4.5-mg/kg daily 13 days, day 14 s.c. 45 min prior to glucose 3-g/kg i.p., 0 min): 10.7 ± 0.2 mM
Blood glucose (ob/ob mice; 4.5-mg/kg daily 13 days, day 14 s.c. 6 hours prior to glucose 3-g/kg i.p., 0 min): 17.8 ± 0.3 mM
Blood glucose (ob/ob mice; s.c. 45 min prior to glucose, 30 min): 11.9 ± 0.4 mM
Blood glucose (ob/ob mice; s.c. 45 min prior to glucose, 60 min): 11.4 ± 0.3 mM
Blood glucose (ob/ob mice; s.c. 45 min prior to glucose, 120 min): 11.0 ± 0.3 mM
Blood glucose (ob/ob mice; s.c. 45 min prior to glucose, 180 min): 10.9 ± 0.3 mM
Blood glucose (ob/ob mice; s.c. 6 hours prior to glucose, 30 min): 20.7 ± 0.2 mM
Blood glucose (ob/ob mice; s.c. 6 hours prior to glucose, 60 min): 20.2 ± 0.2 mM
Blood glucose (ob/ob mice; s.c. 6 hours prior to glucose, 120 min): 19.6 ± 0.2 mM
Blood glucose (ob/ob mice; s.c. 6 hours prior to glucose, 180 min): 18.9 ± 0.3 mM
Blood glucose (C57/BL/6 mice [3]; 4.5-mg/kg i.p. 1 h prior to glucose 3-g/kg i.p., 0 min): 1.3 ± 0.3 mM
Reduction of blood glucose level (C57/BL/6 mice [3]; 4.5-mg/kg i.p. 1 h prior to glucose, 30th min of test period): 33%
Blood glucose (C57/BL/6 mice [3]; 4.5-mg/kg i.p. 1 h prior to glucose, 30 min): 5.4 ± 0.5 mM
Blood glucose (C57/BL/6 mice [3]; 4.5-mg/kg i.p. 1 h prior to glucose, 60 min): 4.3 ± 0.4 mM
Blood glucose (C57/BL/6 mice [3]; 4.5-mg/kg i.p. 1 h prior to glucose, 120 min): 2.8 ± 0.2 mM
Blood glucose (C57/BL/6 mice [3]; 4.5-mg/kg i.p. 1 h prior to glucose, 180 min): 2.2 ± 0.2 mM
Blood glucose (C57/BL/6 mice [3]; 4.5-mg/kg i.p. 24 h prior to glucose, 0 min): 1.4 ± 0.2 mM
Blood glucose (C57/BL/6 mice [3]; 4.5-mg/kg i.p. 24 h prior to glucose, 30 min): 7.0 ± 0.7 mM
Blood glucose (C57/BL/6 mice [3]; 4.5-mg/kg i.p. 24 h prior to glucose, 60 min): 5.2 ± 0.4 mM
Blood glucose (C57/BL/6 mice [3]; 4.5-mg/kg i.p. 24 h prior to glucose, 120 min): 3.4 ± 0.3 mM
Blood glucose (C57/BL/6 mice [3]; 4.5-mg/kg i.p. 24 h prior to glucose, 180 min): 2.8 ± 0.2 mM
Glucose lowering effect (C57/BL/6 mice [3]; treatment 24 hours prior to glucose): smaller and not reproducible in additional experiments
Blood glucose (Wistar rats; rats starved 14 h, i.p. 30 min prior to glucose 3-g/kg i.p., 0 min): 5.03 ± 0.44 mM
Blood glucose (Wistar rats; rats, i.p. 30 min prior to glucose, 30 min): 9.21 ± 0.45 mM
Blood glucose (Wistar rats; rats, i.p. 30 min prior to glucose, 60 min): 5.73 ± 0.39 mM
Blood glucose (Wistar rats; rats, i.p. 30 min prior to glucose, 90 min): 5.11 ± 0.42 mM
Blood glucose (Wistar rats; rats, i.p. 30 min prior to glucose, 120 min): 5.37 ± 0.36 mM
